# Measurements from patent US12270065B2, “Methods for improving titer and purity of beta carotene fermentation in Blakeslea trispora (beta-carotene fermentation method)” (DSM IP Assets B.V., priority 2019, dated 2025).
# Key:
# [1] = system: B. trispora; experiment: Effect on beta-carotene purity profile with B. trispora (percentage of total carotenoids, HPLC); format: cell-based, Blakeslea trispora; settings: for 7,8-DH [%] of total carotenoids / BC [%] of total carotenoids: average of two measurements
# Experimental: (§1) Shake flask seed medium MIBLT-1. 23.5 g/l corn meal, 23 g/l soybean meal, 10 g/l glucose, 0.5 g/l KH2PO4 are mixed, the medium pH is adjusted to 6.3, homogenized with an Ultra-Turrax® blender (Ika) for 8 minutes at 13500 rpm, and heated at 70° C. for 45 minutes prior to autoclaving.
# (§2) Shake flask production medium MF-BLT-22. 17.5 g/l corn meal, 40 g/l soya flour, 10 g/l soy lecithin, 0.5 g/l KH2PO4, 109 g/l soy oil, optionally 0.28 g/l isoniazid, optionally curcumin (1.0, 0.3, 0.1, 0.03 or 0.01% w/v), are mixed, the medium pH is adjusted to 6.3, is homogenized with an Ultra-Turrax® blender (Ika) for 8 minutes at 13500 rpm, and heated at 70° C. for 45 minutes prior to autoclaving.
# (§3) Shake Flask Process. An Erlenmeyer flask (250 or 300 mL volume) containing 30 ml of seed medium (MIBLT-1) is inoculated with spores of B. trispora (−) strain to a concentration of 4.5×10^3 spores/ml. A second Erlenmeyer flask containing 30 ml of MIBLT-1 is inoculated with spores of B. trispora (+) strain to a concentration of 1.5×10^3 spores/ml. The flasks are incubated (220 rpm, 5 cm displacement, 27° C., protected from light) for 48 hr. Three ml of (+) strain culture are added to 30 ml of (−) strain culture, and the mated strains mixture is incubated (220 rpm, 5 cm throw, 27° C., protected from light) for 45 minutes. Erlenmeyer flasks (250 or 300 mL volume) containing 20 ml of production medium (MF-BLT-22) are inoculated with 2 ml of the mated strains mixture. Flasks are incubated (250 rpm, 5 cm displacement, 25° C., protected from light). At 48 hours after inoculation of the 20 mL production cultures, 40 μL of a 50% v/v sterile beta-ionone solution in absolute ethanol is added to each flask. Cultures are returned to the incubator for a total of 7 days post inoculation.
# (§4) Sample preparation for HPLC-analysis. Each flask culture is transferred to a 50 mL conical tube and homogenized with an Ultra-Turrax® blender (Ika) for 2 minutes at 24000 rpm. Weigh out one gram of sample into a 100 ml volumetric flask. Eighty milliliters of Solution A are added to the flask and the flask is sonicated for 5 min. The volume is brought to 100 ml with solution A, and the solution is stirred for 60 minutes and allowed to settle for another hour.
# (§5) HPLC-analysis. Samples from the above extract (10 μl) are injected as is on a calibrated HPLC using a Suplex-PKB-100 column (Supelco), with a flow rate of 0.6 ml/min, and column temperature of 30° C. The mobile phase contains (per L) 455 ml acetonitrile, 500 ml methanol, 0.2 ml N-ethyldiisopropylamine, 25 ml aqueous solution of 0.2% ammonium acetate, and 50 mg BHT (dissolved in 20 ml of 2-propanol). Compounds are identified and quantified by UV at 448 nm.
# Fermentations and analysis were performed as described in Ex. 2, including addition of various concentrations of curcumin.
# [2] = system: B. trispora; experiment: Effect on beta-carotene production with B. trispora in shake flask fermentation (HPLC); format: cell-based, Blakeslea trispora; settings: for BC: average of two measurements; for Increase BC: compared to control with no curcumin/isoniazid
# Experimental: as §1, §2, §3, §4, §5
# Concentration of beta-carotene was measured as described in Example 1, with comparison of different concentrations of curcumin.
# [3] = curcumin 0.3% w/v, listed as Curcumin
smiles,measurement,setting,value
COc1cc(/C=C/C(=O)CC(=O)/C=C/c2ccc(O)c(OC)c2)ccc1O [curcumin],increase of percentage of beta-carotene based on total carotenoids,"[1]; 0.3% curcumin, compared to fermentations without curcumin",about 10%
same,"percentage of 7,8-dihydro-beta-carotene based on total carotenoids",[1]; about 0.3 to 1.0% curcumin,about 3%
same,"reduction of 7,8-dihydro-beta-carotene based on total carotenoids","[1]; about 1.0% (w/v) curcumin, compared to no curcumin",about 68%
same,"reduction of 7,8-dihydro-beta-carotene based on total carotenoids","[1]; addition of curcumin (amount not specified), compared to fermentation without curcumin",at least 28%
same,"7,8-DH [%] of total carotenoids",[1]; curcumin 0.01% w/v,9.98%
same,BC [%] of total carotenoids,[1]; curcumin 0.01% w/v,81.19%
same,"7,8-DH [%] of total carotenoids",[1]; curcumin 0.03% w/v,6.99%
same,BC [%] of total carotenoids,[1]; curcumin 0.03% w/v,85.59%
same,"7,8-DH [%] of total carotenoids",[1]; curcumin 0.1% w/v,5.79%
same,BC [%] of total carotenoids,[1]; curcumin 0.1% w/v,86.75%
same,"7,8-DH [%] of total carotenoids",[1]; curcumin 0.3% w/v,3.35%
same,BC [%] of total carotenoids,[1]; curcumin 0.3% w/v,about 91%
same,BC [%] of total carotenoids,[1]; [3],91.44%
same,"7,8-DH [%] of total carotenoids",[1]; curcumin 1.0% w/v,3.12%
same,BC [%] of total carotenoids,[1]; curcumin 1.0% w/v,92.17%
same,BC,"[2]; curcumin 0.01% w/v in production medium, no isoniazid",1.74 g/L
same,Increase BC,[2]; curcumin 0.01% w/v,12%
same,BC,"[2]; curcumin 0.03% w/v in production medium, no isoniazid",2.45 g/L
same,Increase BC,[2]; curcumin 0.03% w/v,58%
same,BC,"[2]; curcumin 0.1% w/v in production medium, no isoniazid",3.48 g/L
same,Increase BC,[2]; curcumin 0.1% w/v,125%
same,BC,"[2]; curcumin 0.3% w/v in production medium, no isoniazid",4.99 g/L
same,Increase BC,[2]; curcumin 0.3% w/v,more than 220%
same,Increase BC,[2]; [3],222%
same,BC,"[2]; curcumin 1.0% w/v in production medium, no isoniazid",4.55 g/L
same,Increase BC,[2]; curcumin 1.0% w/v,194%
"NNC(=O)c1ccncc1 [isoniazid, reference compound]",increase in the percentage of beta-carotene based on total carotenoids,"[1]; addition of 0.28 g/l isoniazid, compared to no isoniazid",less than 10%
same,"percentage of 7,8-dihydro-beta-carotene based on total carotenoids",[1]; addition of isoniazid (0.28 g/l),28.1%
same,BC,"[2]; isoniazid 0.28 g/l in production medium, no curcumin",4.17 g/L
